Reference: patent US5739300A, “Antiadhesive piperidine-and pyrrolidinecarboxylic acids” (Hoechst Aktiengesellschaft, priority 1995, dated 1998)

Tests used:
P-selectin = experiment: HL60 cell adhesion assay on recombinant, soluble P-selectin-IgG1 fusion protein; type: cell-based; settings: read-out: IC 50 values for P-selectin
From the text: (§1) Primary assays for the investigation of the action of the compounds of the present invention for cell adhesion to recombinant, soluble selectin fusion proteins.
(§2) In order to test the activity of the compounds according to the invention on the interaction between the E- and P-selectins (old nomenclature ELAM-1 and GMP-140) with their ligands, an assay is used which is only specific for one of these interactions in each case. The ligands are supplied in their natural form as surface structures on promyelocytic HL60 cells. As HL60 cells have ligands and adhesion molecules of very different specificity, the desired specificity of the assay can only be produced by means of the binding component. The binding components used were genetically engineered soluble fusion proteins from the extracytoplasmic domain of E- or P-selectin in each case and the constant region of a human immunoglobulin of the subclass IgG1.
Preparation of P-selectin-IgG1
To prepare the soluble P-selectin-lgG1 fusion protein, the genetic construct "CD62Rg" published by Aruffo et al., 1991 is used. The further procedure corresponds to the preparation of L-selectin-IgG1 presented under A1.
Aruffo, A., Kolanus, W., Walz, G., Fredman, P. and Seed, B. 1991. CD62/-P-Selectin recognition of myeloid and tumor cell sulfatides. Cell 67, 35-44.
(§3) Carrying out the HL60 cell adhesion assays on recombinant, soluble adhesion molecules
(§4) 1. 96-well microtiter test plates (Nunc Maxisorb) are incubated at room temperature for 2 hours with 100 μl of a goat anti-human IgG antibody (Sigma) diluted (1+100) in 50 mM tris pH 9.5. After removing the antibody solution, washing is carried out once with PBS.
(§5) 2. 150 μl of the blocking buffer are left in the wells for 1 hour at room temperature. The composition of the blocking buffer is: 0.1% gelatin, 1% BSA, 5% calf serum, 0.2 mM PMSF, 0.02% sodium azide. After removing the blocking buffer, washing is carried out once with PBS.
(§6) 3. 100 μl each of cell culture supernatant of correspondingly transfected and expressing COS cells are pipetted into the wells, Incubation is carried out for 2 hours at room temperature. After removing the cell culture supernatant, washing is carried out once with PBS.
4. 20 μl of binding buffer are added to the wells. The binding buffer has the composition: 50 mM HEPES, pH 7.5; 100 mM NaCl; 1 mg/ml BSA; 2 mM MgCl2; 1 mM CaCl2; 3 mM MnCl2; 0.02% sodium azide; 0.2 mM PMSF. To do this, 5 μl of the test substance are pipetted, mixed by swirling the plate and incubated at room temperature for 10 min.
5. 50 ml of a HL60 cell culture having 200,000 cells/ml are centrifuged at 350 g for 4 min. The pellet is resuspended in 10 ml of RPMI 1640 and the cells are centrifuged again. […]

E-selectin = target: T1, E-selectin (Homo sapiens, UniProt P16581); experiment: HL60 cell adhesion assay on recombinant, soluble E-selectin-IgG1 fusion protein; type: cell-based; settings: read-out: IC 50 values for E-selectin
T1 construct: genetically engineered soluble fusion proteins from the extracytoplasmic domain of E- or P-selectin in each case; made in house; host or cells: COS-7 cells (ATCC), transiently transfected; culture supernatant captured on anti-human IgG
From the text: as §1, §2
Preparation of L-selectin-IgG1
To prepare soluble L-selectin-IgG1 fusion protein, the genetic construct "ELAM-Rg" published by Walz et al., 1990 was used.
For expression, the plasmid DNA was transfected in COS-7 cells (ATCC) by means of DEAE-dextran (Molecular biological methods: see Ausubel, F. M., Brent, R., Kingston, R. E., Moore, D. D., Seidman, J. G., Struhl, K. and Smith, J. A. 1990. Current Protocols in Molecular Biology, John Wiley, New York). Seven days after transfection, the culture supernatant is recovered, freed from cells and cell fragments by centrifugation and transferred to 25 mM HEPES pH 7.0, 0.3 mM PMSF, 0.02% sodium azide and kept at +4° C. (Walz, G., Aruffo, A., Kolanus, W., Bevilacqua, M. and Seed, B. 1990. Recognition by ELAM-1 of the sialyl-Lex determinant on myeloid and tumor cells. Science 250, 1132-1135.)
as §3, §4, §5, §6
4. 20 μl of binding buffer are added to the wells. […]

[1] = system: open rabbit heart perfused with leukocytes; experiment: Reperfusion model: adhesion of neutrophils in ischemia/reperfusion on the open rabbit heart (Langendorff)
Method: Reperfusion model for investigation of the effects of the adhesion of neutrophils in the course of ischemia/reperfusion on the open rabbit heart
The hearts are perfused at constant pressure according to the Langendorff technique with nutrient solution and also with/without leukocytes or active compound. Ischemia is then produced by tying off the left coronary artery (30 min). After reperfusion (30 min), the leukocyte accumulation is histologically assessed. In the course of the experiment, potentials and arrhythmias are additionally measured on 256 electrodes (total time of experiment about 90 min).

[2] = system: adhesion of leukocytes to the endothelium; experiment: Leukocyte adhesion in vivo, intravital microscopy in the rat (mesenterium, LPS-induced); settings: SPRD (m) rat, LPS 15 mg/kg, vs untreated control
From the text: Leukocyte adhesion--Testing of the activity of the compounds according to the invention in vivo (intravital microscopy in the rat):
The induced adhesion of leukocytes is quantified in the mesenterium of the rat using an intravital microscopic investigation technique (Atherton A. and Born G. V. R., Quantitative investigations of the adhesiveness of circulating polymorphonuclear leukocytes to blood vessel walls. J. Physiol. 222, 447-474, 1972; Seiffge, D. Methoden zur Untersuchung der Rezeptor-vermittelten Interaktion zwischen Leukozyten und Endothelzellen im Entzundungsgeschehen [Methods for investigation of the receptor-mediated interaction between leukocytes and endothelial cells in inflammatory phenomena], in: Ersatz- und Erganzungsmethoden zu Tierversuchen in der biomedizinischen Forschung [Substitution and replacement methods for animal experiments in biomedical research], Schoffl, H. et al., (ed.) Springer, 1995 (in print)). Lasting anesthesia is initiated under inhalation ether anesthesia by intramuscular injection of urethane ([…] of body weight). After exposing vessels (femoral vein for the injection of substances and carotid artery for blood pressure measurement), catheters are tied into them. After this, the corresponding transparent tissue (mesenterium) is exposed by the standard methods known in the literature and arranged on the microscope stage and coated with warm liquid paraffin at 37° C. (Menger, M. D. and Lehr, H, A., Scope and perspectives of intravital microscopy-bridge over from in vitro to in vivo, Immunology Today 14, 519-522, 1993). […] The increased adhesion of leukocytes to the endothelium caused by this means is quantified by direct vital microscopy or with the aid of fluorescent dyes. All measuring operations are recorded by video camera and stored on a video recorder. Over a period of 60 minutes, the number of rolling leukocytes (i.e. all visibly rolling leukocytes which are slower than the flowing erythrocytes) and the number of leukocytes adhering to the endothelium (residence period longer than 5 seconds) is determined every 10 minutes. […]

T1 sequence (P16581 with tags, fused parts or gaps): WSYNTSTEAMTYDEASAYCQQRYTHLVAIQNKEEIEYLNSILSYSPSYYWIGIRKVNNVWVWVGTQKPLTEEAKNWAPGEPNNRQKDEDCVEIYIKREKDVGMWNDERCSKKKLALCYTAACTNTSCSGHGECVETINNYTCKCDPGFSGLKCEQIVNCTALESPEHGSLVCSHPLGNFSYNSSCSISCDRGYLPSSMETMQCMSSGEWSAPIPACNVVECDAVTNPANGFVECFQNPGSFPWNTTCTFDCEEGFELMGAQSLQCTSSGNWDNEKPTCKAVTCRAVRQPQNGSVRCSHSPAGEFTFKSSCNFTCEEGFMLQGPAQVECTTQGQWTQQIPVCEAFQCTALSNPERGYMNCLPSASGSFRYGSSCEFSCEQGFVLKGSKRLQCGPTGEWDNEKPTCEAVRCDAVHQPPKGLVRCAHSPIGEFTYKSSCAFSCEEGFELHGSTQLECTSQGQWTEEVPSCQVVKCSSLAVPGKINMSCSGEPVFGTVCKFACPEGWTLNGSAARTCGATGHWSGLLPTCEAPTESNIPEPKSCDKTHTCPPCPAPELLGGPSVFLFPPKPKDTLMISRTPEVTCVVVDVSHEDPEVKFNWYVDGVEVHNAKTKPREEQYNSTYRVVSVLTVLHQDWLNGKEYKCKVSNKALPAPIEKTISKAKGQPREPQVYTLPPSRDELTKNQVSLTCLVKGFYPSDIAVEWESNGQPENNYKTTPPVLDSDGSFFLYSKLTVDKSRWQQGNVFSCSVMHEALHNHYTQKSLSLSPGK

Row | Compound | IC50 (P-selectin) [mM] | IC50 (E-selectin) [mM] | reduction of arrhythmias ([1]; in the range from about 1 μM) | inhibition (of leukocyte adhesion) ([2]; 1 mg/kg i.v.) [%] | inhibition (of leukocyte adhesion) ([2]; 5 mg/kg i.v.) [%] | inhibition (of leukocyte adhesion) ([2]; 10 mg/kg i.v.) [%] | leukocyte accumulation and arrhythmias ([1]; hearts perfused with leukocytes and active compound, vs untreated hearts)
1 | C[C@@H]1O[C@@H](O[C@@H]2CCC[C@H]2OC(=O)N2CCC(C(=O)O)CC2)[C@@H](O)[C@H](O)[C@@H]1O [Compound 1e, N-Carbonyl-4-carboxypiperidyl-(1→2)-[(α-L-fucopyranosyl)-(1→1)]-(1R, 2R)-trans-1,2-cyclopentanediol] | 2.85 | 3.7 |  |  |  |  | 
2 | C[C@@H]1O[C@@H](O[C@@H]2CCCC[C@H]2OC(=O)N2CCC(C(=O)O)CC2)[C@@H](O)[C@H](O)[C@@H]1O [Compound 3a, N-Carbonyl-4-carboxypiperidyl-(1→2)-[(α-L-fucopyranosyl)-(1→1)]-(1R, 2R)-trans-1,2-cyclohexanediol] | > 2 | > 2 | considerable reduction of arrhythmias | 64 | 69 | 81 | 
3 | C[C@@H]1O[C@@H](O[C@@H]2CCCC[C@H]2OC(=O)N2CCC(C(=O)O)(C(=O)O)CC2)[C@@H](O)[C@H](O)[C@@H]1O [Compound 3e, N-Carbonyl-4,4-dicarboxypiperidyl-(1→2)-[(α-L-fucopyranosyl)-(1→1)]-(1R, 2R)-trans-1,2-cyclohexanediol] | 7.5 | 1.6 |  |  |  |  | 
4 | C[C@@H]1O[C@@H](O[C@@H]2CCCC[C@H]2OC(=O)N2CCCC(CC(C(=O)O)C(=O)O)C2)[C@@H](O)[C@H](O)[C@@H]1O (stereo partly drawn) [Compound 4b, [N-Carbonyl-(1,1-dicarboxyl-ethyl)-(2→3)-piperidyl]-(1→2)-[(α-L-fuco-pyranosyl)-(1→1)]-(1R, 2R)-trans-1,2-cyclohexanediol] | > 2 | > 2 |  |  |  |  | 
5 | chondroitin sulfate [reference compound] |  |  |  |  |  |  | reduced leukocyte accumulation and arrhythmias
